According to patent US20160262390A1, “FIELD APPLICATION OF SUGARS TO INCREASE CROP YIELD” (Minn-Dak Farmers Cooperative, priority 2015, published 2016):

Experiments:
sugarbeets = test: Pre-planting sugar application on sugarbeets, Foxhome; format: in vivo, sugarbeet; details: for Recoverable Sugar Yield / Recoverable Sugar Yield Increase Compared to Check Average / Sugarbeet Yield: MN; for number of treatments showing yield improvement compared to check average: six rates (25-250 pounds/Acre) per sugar, thirty in all
Experimental: (§1) The field trials were conducted simultaneously in two different planting locations for each of the crops. One location was near the community of Foxhome in Wilkin County, Minnesota (hereafter referred to as “Foxhome”) while the second location was near the community of Hickson in Cass County, North Dakota (hereafter referred to as “Hickson”). The Foxhome and Hickson locations are on opposite sides of the Red River along the border of Minnesota and North Dakota and separated by a distance exceeding 40 miles. Generally, the Foxhome location has heavier clay loam soil conditions while Hickson has sandy loam soil conditions.
(§2) At each of the Foxhome and Hickson locations, a total of thirty two (32) treatments were conducted for each crop (sugarbeets, soybeans, corn, wheat). Each treatment was replicated four times arranged in a Randomized Complete Block (RCB) Design in the same field. Each replication consisted of a plot measuring twenty five (25) feet in length and eleven (11) feet in width. In selecting the particular seed types for evaluation, popular commercial varieties to the region were utilized. For the row crops (sugarbeets, soybeans, corn) each replication included a width of six (6) rows with twenty two (22) inch row spacing and having a row length of twenty five (25) feet. The wheat was planted in accordance with standard commercial practices. To reduce/eliminate any treatment impacts between adjacent plots for the crops, only the four (4) interior rows of each plot were treated and evaluated for row crops, while for wheat, only the interior 7.33 feet of each plot were treated and evaluated. With the exception of the treatment program applied to the individual plots, which will be discussed below, conventional commercial growing practices for each planting location were otherwise followed during the field trials.
(§3) The treatment regimen at each location for each of the tested crops included two (2) untreated treatments (Treatments 31 and 32) in which no sugar was applied and constitute the control elements. […] Six (6) treatments (Treatments 13-18) included the liquid application of high fructose corn syrup (hereafter “HFCS”) at varying rates. Six treatments (Treatments 19-24) included the liquid application of dextrose (hereafter “LIQDEX”) at varying rates. Six (6) treatments (Treatments 25-30) included the application of powdered cellulose (hereafter “POWCEL”) at varying rates. For the sugar applied in a solid form, granulated or powdered, field application was conducted via conventional broadcast spreading. For the sugar applied in a liquid form, a liquid concentrate was mixed and diluted with water in a tank and a conventional sprayer was configured such that the liquid was sprayed so as to have the same sugar equivalent (measured in pounds/per acre) as the sugar in solid form. Regardless of whether the sugar was applied as a solid or liquid, the sugar was applied directly onto the soil before spring tillage, lightly worked into the ground and followed by planting of the crop seed in the treated ground. A summary of application rates for each plot treatments are contained in Table 7 below and were used consistently with each of the crops (sugarbeets, soybeans, corn, wheat).
To test the impact of pre-planting application rates and sugar source on sugarbeets, identical field trials using Crystal® brand ACH 260 sugarbeet seed were conducted at the Foxhome and Hickson locations. Planting of the sugarbeet seed and harvest of the sugarbeets were conducted on as close to the same dates as practical so as to have essentially the same length growing season.

corn [1] = test: Pre-planting sugar application on corn, Foxhome; format: in vivo; details: for Yield / Yield Increase Compared to Check Average: MN; for number of treatments showing yield improvement compared to check average: six rates (25-250 pounds/Acre) per sugar, thirty in all
Experimental: as §1
as §2, with “trials. While the individual plots at the same location, Hickson or Foxhome, experienced essentially the same growing conditions throughout the season, there were various differences associated with localized precipitation, general growing conditions, soil classification and the like, which contributed to performance differences between the Hickson and Foxhome locations.” for “trials.”
as §3
(§4) To test the impact of pre-planting application rates and sugar source on corn, identical field trials using Peterson Farms brand corn seed were conducted at the Foxhome and Hickson locations. Planting of the corn seed and harvest of the corn were conducted on the same dates so as to have essentially the same growing season. […]

corn [2] = test: Pre-planting sugar application on corn, Hickson; format: in vivo; details: for Yield / Yield Increase Compared to Check Average: ND; for number of treatments showing yield improvement compared to check average: six rates (25-250 pounds/Acre) per sugar, thirty in all
Experimental: as §1
as §2, with “trials. While the individual plots at the same location, Hickson or Foxhome, experienced essentially the same growing conditions throughout the season, there were various differences associated with localized precipitation, general growing conditions, soil classification and the like, which contributed to performance differences between the Hickson and Foxhome locations.” for “trials.”
as §3, §4

wheat = test: Pre-planting sugar application on wheat, Foxhome; format: in vivo; details: for Yield / Yield Increase Compared to Check Average: MN; for number of treatments showing yield improvement compared to check average: six rates (25-250 pounds/Acre) per sugar, thirty in all
Experimental: as §1
as §2, with “trials. While the individual plots at the same location, Hickson or Foxhome, experienced essentially the same growing conditions throughout the season, there were various differences associated with localized precipitation, general growing conditions, soil classification and the like, which contributed to performance differences between the Hickson and Foxhome locations.” for “trials.”
as §3
as §4, with “wheat,” for “corn,”, “Westbred Mayville wheat” for “Peterson Farms brand corn”, “wheat” for “corn”

OC[C@H]1O[C@@](CO)(O[C@H]2O[C@H](CO)[C@@H](O)[C@H](O)[C@H]2O)[C@@H](O)[C@@H]1O [GS, sucrose]
Recoverable Sugar Yield (sugarbeets; pre-planting 25 pounds/Acre): 8856 Pounds/Acre
Recoverable Sugar Yield Increase Compared to Check Average (sugarbeets; pre-planting 25 pounds/Acre): 3.25%
Sugarbeet Yield (sugarbeets; pre-planting 25 pounds/Acre): 32.03 Tons/Acre
Recoverable Sugar Yield (sugarbeets; pre-planting 50 pounds/Acre): 8707 Pounds/Acre
Recoverable Sugar Yield Increase Compared to Check Average (sugarbeets; pre-planting 50 pounds/Acre): 1.52%
Sugarbeet Yield (sugarbeets; pre-planting 50 pounds/Acre): 32.27 Tons/Acre
Recoverable Sugar Yield (sugarbeets; pre-planting 100 pounds/Acre): 8100 Pounds/Acre
Recoverable Sugar Yield Increase Compared to Check Average (sugarbeets; pre-planting 100 pounds/Acre): −5.56%
Sugarbeet Yield (sugarbeets; pre-planting 100 pounds/Acre): 30.85 Tons/Acre
Recoverable Sugar Yield (sugarbeets; pre-planting 150 pounds/Acre): 9080 Pounds/Acre
Recoverable Sugar Yield Increase Compared to Check Average (sugarbeets; pre-planting 150 pounds/Acre): 5.86%
Sugarbeet Yield (sugarbeets; pre-planting 150 pounds/Acre): 31.94 Tons/Acre
Recoverable Sugar Yield (sugarbeets; pre-planting 200 pounds/Acre): 8345 Pounds/Acre
Recoverable Sugar Yield Increase Compared to Check Average (sugarbeets; pre-planting 200 pounds/Acre): −2.70%
Sugarbeet Yield (sugarbeets; pre-planting 200 pounds/Acre): 30.69 Tons/Acre
Recoverable Sugar Yield (sugarbeets; pre-planting 250 pounds/Acre): 9002 Pounds/Acre
Recoverable Sugar Yield Increase Compared to Check Average (sugarbeets; pre-planting 250 pounds/Acre): 4.96%
Sugarbeet Yield (sugarbeets; pre-planting 250 pounds/Acre): 31.80 Tons/Acre
number of treatments showing yield improvement compared to check average (sugarbeets): four of the six
Yield (corn [1]; pre-planting 25 pounds/Acre): 271.62 Bushels/Acre
Yield Increase Compared to Check Average (corn [1]; pre-planting 25 pounds/Acre): 2.20%
Yield (corn [1]; pre-planting 50 pounds/Acre): 272.13 Bushels/Acre
Yield Increase Compared to Check Average (corn [1]; pre-planting 50 pounds/Acre): 2.40%
Yield (corn [1]; pre-planting 100 pounds/Acre): 274.80 Bushels/Acre
Yield Increase Compared to Check Average (corn [1]; pre-planting 100 pounds/Acre): 3.40%
Yield (corn [1]; pre-planting 150 pounds/Acre): 263.34 Bushels/Acre
Yield Increase Compared to Check Average (corn [1]; pre-planting 150 pounds/Acre): −0.91%
Yield (corn [1]; pre-planting 200 pounds/Acre): 264.61 Bushels/Acre
Yield Increase Compared to Check Average (corn [1]; pre-planting 200 pounds/Acre): −0.43%
Yield (corn [1]; pre-planting 250 pounds/Acre): 260.71 Bushels/Acre
Yield Increase Compared to Check Average (corn [1]; pre-planting 250 pounds/Acre): −1.90%
number of treatments showing yield improvement compared to check average (corn [1]): three of the six
Yield (corn [2]; pre-planting 25 pounds/Acre): 188.56 Bushels/Acre
Yield Increase Compared to Check Average (corn [2]; pre-planting 25 pounds/Acre): 22.03%
Yield (corn [2]; pre-planting 50 pounds/Acre): 153.24 Bushels/Acre
Yield Increase Compared to Check Average (corn [2]; pre-planting 50 pounds/Acre): −0.83%
Yield (corn [2]; pre-planting 100 pounds/Acre): 165.78 Bushels/Acre
Yield Increase Compared to Check Average (corn [2]; pre-planting 100 pounds/Acre): 7.29%
Yield (corn [2]; pre-planting 150 pounds/Acre): 161.20 Bushels/Acre
Yield Increase Compared to Check Average (corn [2]; pre-planting 150 pounds/Acre): 4.32%
Yield (corn [2]; pre-planting 200 pounds/Acre): 163.58 Bushels/Acre
Yield Increase Compared to Check Average (corn [2]; pre-planting 200 pounds/Acre): 5.86%
Yield (corn [2]; pre-planting 250 pounds/Acre): 156.06 Bushels/Acre
Yield Increase Compared to Check Average (corn [2]; pre-planting 250 pounds/Acre): 1.00%
number of treatments showing yield improvement compared to check average (corn [2]): five of the six
Yield (wheat; pre-planting 25 pounds/Acre): 73.58 Bushels/Acre
Yield Increase Compared to Check Average (wheat; pre-planting 25 pounds/Acre): 13.55%
Yield (wheat; pre-planting 50 pounds/Acre): 70.01 Bushels/Acre
Yield Increase Compared to Check Average (wheat; pre-planting 50 pounds/Acre): 8.04%
Yield (wheat; pre-planting 100 pounds/Acre): 59.45 Bushels/Acre
Yield Increase Compared to Check Average (wheat; pre-planting 100 pounds/Acre): −8.26%
Yield (wheat; pre-planting 150 pounds/Acre): 66.65 Bushels/Acre
Yield Increase Compared to Check Average (wheat; pre-planting 150 pounds/Acre): 2.85%
Yield (wheat; pre-planting 200 pounds/Acre): 59.64 Bushels/Acre
Yield Increase Compared to Check Average (wheat; pre-planting 200 pounds/Acre): −7.96%
Yield (wheat; pre-planting 250 pounds/Acre): 59.73 Bushels/Acre
Yield Increase Compared to Check Average (wheat; pre-planting 250 pounds/Acre): −7.82%
number of treatments showing yield improvement compared to check average (wheat): three of the six

OC[C@H]1O[C@@](CO)(O[C@H]2O[C@H](CO)[C@@H](O)[C@H](O)[C@H]2O)[C@@H](O)[C@@H]1O [LIQSUC, sucrose]
Recoverable Sugar Yield (sugarbeets; pre-planting 25 pounds/Acre): 8629 Pounds/Acre
Recoverable Sugar Yield Increase Compared to Check Average (sugarbeets; pre-planting 25 pounds/Acre): 0.61%
Sugarbeet Yield (sugarbeets; pre-planting 25 pounds/Acre): 32.17 Tons/Acre
Recoverable Sugar Yield (sugarbeets; pre-planting 50 pounds/Acre): 8627 Pounds/Acre
Recoverable Sugar Yield Increase Compared to Check Average (sugarbeets; pre-planting 50 pounds/Acre): 0.58%
Sugarbeet Yield (sugarbeets; pre-planting 50 pounds/Acre): 31.21 Tons/Acre
Recoverable Sugar Yield (sugarbeets; pre-planting 100 pounds/Acre): 8592 Pounds/Acre
Recoverable Sugar Yield Increase Compared to Check Average (sugarbeets; pre-planting 100 pounds/Acre): 0.17%
Sugarbeet Yield (sugarbeets; pre-planting 100 pounds/Acre): 31.79 Tons/Acre
Recoverable Sugar Yield (sugarbeets; pre-planting 150 pounds/Acre): 8646 Pounds/Acre
Recoverable Sugar Yield Increase Compared to Check Average (sugarbeets; pre-planting 150 pounds/Acre): 0.80%
Sugarbeet Yield (sugarbeets; pre-planting 150 pounds/Acre): 30.26 Tons/Acre
Recoverable Sugar Yield (sugarbeets; pre-planting 200 pounds/Acre): 8473 Pounds/Acre
Recoverable Sugar Yield Increase Compared to Check Average (sugarbeets; pre-planting 200 pounds/Acre): −1.21%
Sugarbeet Yield (sugarbeets; pre-planting 200 pounds/Acre): 30.23 Tons/Acre
Recoverable Sugar Yield (sugarbeets; pre-planting 250 pounds/Acre): 8424 Pounds/Acre
Sugarbeet Yield (sugarbeets; pre-planting 250 pounds/Acre): 31.04 Tons/Acre
number of treatments showing yield improvement compared to check average (sugarbeets): four of the six
Yield (corn [1]; pre-planting 25 pounds/Acre): 264.82 Bushels/Acre
Yield Increase Compared to Check Average (corn [1]; pre-planting 25 pounds/Acre): −0.35%
Yield (corn [1]; pre-planting 50 pounds/Acre): 274.43 Bushels/Acre
Yield Increase Compared to Check Average (corn [1]; pre-planting 50 pounds/Acre): 3.26%
Yield (corn [1]; pre-planting 100 pounds/Acre): 264.79 Bushels/Acre
Yield Increase Compared to Check Average (corn [1]; pre-planting 100 pounds/Acre): −0.36%
Yield (corn [1]; pre-planting 150 pounds/Acre): 270.66 Bushels/Acre
Yield Increase Compared to Check Average (corn [1]; pre-planting 150 pounds/Acre): 1.84%
Yield (corn [1]; pre-planting 200 pounds/Acre): 271.85 Bushels/Acre
Yield Increase Compared to Check Average (corn [1]; pre-planting 200 pounds/Acre): 2.29%
Yield (corn [1]; pre-planting 250 pounds/Acre): 263.78 Bushels/Acre
Yield Increase Compared to Check Average (corn [1]; pre-planting 250 pounds/Acre): −0.75%
number of treatments showing yield improvement compared to check average (corn [1]): three of the six
Yield (corn [2]; pre-planting 25 pounds/Acre): 163.69 Bushels/Acre
Yield Increase Compared to Check Average (corn [2]; pre-planting 25 pounds/Acre): 5.93%
Yield (corn [2]; pre-planting 50 pounds/Acre): 162.57 Bushels/Acre
Yield Increase Compared to Check Average (corn [2]; pre-planting 50 pounds/Acre): 5.21%
Yield (corn [2]; pre-planting 100 pounds/Acre): 160.94 Bushels/Acre
Yield Increase Compared to Check Average (corn [2]; pre-planting 100 pounds/Acre): 4.15%
Yield (corn [2]; pre-planting 150 pounds/Acre): 165.35 Bushels/Acre
Yield Increase Compared to Check Average (corn [2]; pre-planting 150 pounds/Acre): 7.01%
Yield (corn [2]; pre-planting 200 pounds/Acre): 164.24 Bushels/Acre
Yield Increase Compared to Check Average (corn [2]; pre-planting 200 pounds/Acre): 6.29%
Yield (corn [2]; pre-planting 250 pounds/Acre): 166.53 Bushels/Acre
Yield Increase Compared to Check Average (corn [2]; pre-planting 250 pounds/Acre): 7.77%
number of treatments showing yield improvement compared to check average (corn [2]): each of their six
Yield (wheat; pre-planting 25 pounds/Acre): 57.25 Bushels/Acre
Yield Increase Compared to Check Average (wheat; pre-planting 25 pounds/Acre): −11.65%
Yield (wheat; pre-planting 50 pounds/Acre): 68.06 Bushels/Acre
Yield Increase Compared to Check Average (wheat; pre-planting 50 pounds/Acre): 5.03%
Yield (wheat; pre-planting 100 pounds/Acre): 67.59 Bushels/Acre
Yield Increase Compared to Check Average (wheat; pre-planting 100 pounds/Acre): 4.31%
Yield (wheat; pre-planting 150 pounds/Acre): 65.84 Bushels/Acre
Yield Increase Compared to Check Average (wheat; pre-planting 150 pounds/Acre): 1.60%
Yield (wheat; pre-planting 200 pounds/Acre): 62.49 Bushels/Acre
Yield Increase Compared to Check Average (wheat; pre-planting 200 pounds/Acre): −3.56%
Yield (wheat; pre-planting 250 pounds/Acre): 63.20 Bushels/Acre
Yield Increase Compared to Check Average (wheat; pre-planting 250 pounds/Acre): −2.47%
number of treatments showing yield improvement compared to check average (wheat): three of the six
